Results as given in patent US10053459B2, “Life-extending agent, life extension method using the life-extending agent, novel dual oxidase activator, method for activating dual oxidase, production of life-extending agent, and production of dual oxidase activator” (National University Corporation Nagoya University, priority 2014, dated 2018).
Structures can show the parent of a compound that is named as a salt. Each block holds one compound with its values, some of them ahead of it.

Assays:
[1] = Stability of test substance in the petri dishes used in the life test (LC analysis); format: physicochemical; conditions: for Test substance (%) / Main impurities: in petri dish medium used in the life test
Procedure: The analysis of PQQ sodium salt was conducted under analysis conditions given below. PQQ concentration and purity were measured by high-performance liquid chromatography under conditions shown below.
Apparatus: high-performance liquid chromatography, LC-2010 manufactured by Shimadzu Corp.
Column: YMC-Pack ODS-A, 150×4.6 mm I.D.
Measurement temperature: 40° C.
Detection: absorbance at 259 nm
Eluent: 30 mM acetic acid/70 mM ammonium acetate (pH 5.1)
The reduced pyrroloquinoline quinone, the acetone adduct of pyrroloquinoline quinone, and the IPQ trisodium salt in the petri dishes used in the life test were evaluated for their stability by liquid chromatography analysis (LC analysis). The liquid chromatography analysis can be conducted according to those described above.

[2] = system: nematode C. elegans, wild-type; test: Life test (life assay) of nematode on medium containing the test substance; format: in vivo; conditions: for average life / life-extending effect: 5.0 mM in medium vs 0 mM, FIGS. 3 and 4
Procedure: Pyrroloquinoline quinone disodium salt was mixed with water and sodium hydroxide to obtain test sample concentrate 1 of pH 6. The content of the pyrroloquinoline quinone disodium salt in the test sample concentrate 1 was adjusted to 30 mM. The test sample concentrate 1 was autoclave-sterilized for use. […] Meanwhile, to each E. coli solution cultured in an LB medium (Luria-Bertani broth), the test sample concentrate 1 was added so as to attain the same concentration as that of the pyrroloquinoline quinone disodium salt in the medium of each of the prepared petri dishes. 100 μL of the obtained E. coli solution was seeded in a circular pattern of approximately 2 cm in diameter to the center of each petri dish. […] The petri dish was wrapped in Parafilm during storage. […] These individuals were excluded from the data. […] Petri dishes having media containing different concentrations of the acetone adduct were prepared by the same operation as in Example 1 except that the amount of the test sample concentrate 2 added was adjusted such that the concentration of the acetone adduct in each medium solution was 0 mM (Comparative Example 2) and 5.0 mM (Example 5). […] Petri dishes having media containing different concentrations of the IPQ trisodium salt were prepared by the same operation as in Example 1 except that the amount of the test sample concentrate 3 added was adjusted such that the concentration of the IPQ trisodium salt in each medium solution was 0 mM (Comparative Example 3) and 5.0 mM (Comparative Example 4).

[3] = system: nematode variant bli-3 (im-10), reduced activity of dual oxidase
Procedure: (§1) 7.2 g of NaCl, 48 g of agar, 6 g of Bactopeptone (manufactured by Becton, Dickinson and Company), and water (2.4 L including the amount of the sample concentrate to be added) were added into each flask. The flask was autoclaved at 120° C. for 20 minutes or longer and then cooled until the surface temperature of the flask became approximately 45° C. To this flask, 60 mL of a 1 M potassium phosphate solution, 2.4 mL of a 1 M CaCl2 solution, 2.4 mL of a 1 M MgSO4 solution, 2.4 mL of a 750 mg/150 mL cholesterol solution, and a predetermined amount of the 30 mM test sample concentrate 1 were added to obtain a medium solution. The amount of the test sample concentrate 1 added was adjusted such that the concentration of the pyrroloquinoline quinone disodium salt in the medium solution was 0 mM (Comparative Example 1), 0.1 mM (Example 1), 1.0 mM (Example 2), 3.0 mM (Example 3), and 5.0 mM (Example 4). The flask was further cooled until the surface temperature of the flask reached 40 to 41° C. 14 mL of the medium solution was added to each polystyrene petri dish having a diameter of 6 cm and cooled to room temperature to prepare petri dishes having media containing different concentrations of the pyrroloquinoline quinone disodium salt.
(§2) In order to synchronize the ages of nematode individuals at the start of the experiment, parent nematodes were allowed to lay eggs and then removed, and individuals evenly grown for a given period of time after hatching were used. Specifically, five adults (individuals under incubation) were selected and transferred to each petri dish, which was then left at 20° C. for 2 hours (lay period), and the parent nematodes were removed. Then, the petri dish was left at 20° C. for 72 hours. The life test was started when the number of individuals per petri dish reached 10 to 20.
(§3) Grown-up individuals were used in the life assay.
(§4) The individuals in each petri dish were transferred to a fresh petri dish every day. Information on date, the number of survivors, the number of deaths, the number of missing individuals, etc., was recorded in a score sheet. The petri dish was wrapped in Parafilm during storage. An individual was judged as being dead when no spontaneous behavior was seen and no response was found even by vibration stimulus or contact stimulus. Nematodes are often missing because of running out of the petri dish, being dried at the wall, crawling out from a gap in the medium, for example. Therefore, the number of missing individuals was recorded and excluded from the data. Individuals that died of the eclosion of their children in their bodies, which occurs frequently in certain variants, were recorded as BAG, and individuals that died of hernia were recorded as rupture.
(§5) Nematode variants can be used to determine how PQQ works. A plurality of petri dishes were prepared using the medium containing 5 mM PQQ prepared in Example 4. The life extension test was conducted in the same way as in Example 1 using the prepared petri dishes and each variant shown in Table 2. The results obtained without the addition of PQQ are indicated as 100 for a relative effect.

[4] = system: nematode variant daf-2 (e1370)
Procedure: as §1, §2, §3, §4, §5

[5] = system: nematode variant age-1 (hx546)
Procedure: as §1, §2, §3, §4, §5

[6] = system: nematode variant bli-3 (e767), reduced activity of dual oxidase
Procedure: as §1, §2, §3, §4, §5

[7] = system: nematode variant nsy-1 (ky400)
Procedure: as §1, §2, §3, §4, §5

[8] = system: nematode variant skn-1 (zu67)
Procedure: as §1, §2, §3, §4, §5

[9] = system: nematode variant pmk-3 (ok-169)
Procedure: as §1, §2, §3, §4, §5

[10] = system: nematode variant gas-1 (fc2); test: Life test using variant gas-1 (fc2); format: in vivo, C. elegans
Description: as §3
(§6) The petri dish was wrapped in Parafilm during storage. […] These individuals were excluded from the data.

[11] = system: nematode line OB265bli-3 (e767); imEx144[bli-3genomic clone]; test: Life test using line OB265 bli-3 (e767); imEx144[bli-3genomic clone]; format: in vivo, C. elegans
Description: as §3, §6

[12] = Stability of reduced PQQ in agar medium, preservation test (LC and UV spectrum analysis); format: physicochemical; conditions: 30° C. for 3 days
Procedure: Ultraviolet-visible spectra were measured using a UV spectrometer UV1800 manufactured by Shimadzu Corp.
Reduced PQQ was added to sterile water to prepare a 30 mM dispersion. This dispersion was added so as to make 5 mM in the composition for evaluation described above to prepare a petri dish. The preservation test was conducted at 30° C. for 3 days, followed by LC analysis and UV spectrum analysis. The reduced formed is converted to PQQ under neutral conditions. Therefore, the reduced state can be confirmed by detecting PQQ by the LC analysis and measuring the UV spectrum of a solution thereof in dimethyl sulfoxide. As a result of confirming the state of the reduced PQQ in an agar medium in this way, 86% of all PQQs maintained the reduced state.

[13] = 5 mM PQQ, result without PQQ = 100

Test substance (%) [1]: IPQ100%
SMILES: O=C(O)c1cc2c(=O)c3ncn4c(C(=O)O)cc(C(=O)O)c(c2[nH]1)c34 [IPQ, trisodium salt of imidazoloquinone, reference compound]
average life / life-extending effect [2]: small life-extending effect

SMILES: O=C(O)c1cc(C(=O)O)c2c(n1)C(=O)C(=O)c1cc(C(=O)O)[nH]c1-2 [PQQ, Pyrroloquinoline quinone disodium salt]
Average life after becoming adult ([3]; 5 mM PQQ in medium): 11.7 ± 0.4 days
Relative value [3, 13]: 99
Average life after becoming adult ([4]; 5 mM PQQ in medium): 34.6 ± 0.9 days
Relative value [4, 13]: 121
Average life after becoming adult ([5]; 5 mM PQQ in medium): 23.4 ± 0.9 days
Relative value [5, 13]: 123
Average life after becoming adult ([6]; 5 mM PQQ in medium): 13.5 ± 0.4 days
Relative value [6, 13]: 87
Average life after becoming adult ([7]; nsy-1 (ky400), 5 mM PQQ in medium): 16.0 ± 0.3 days
Relative value ([7]; nsy-1 (ky400), 5 mM PQQ, result without PQQ = 100): 104
life-extending effect (in words) ([7]; nsy-1 variant, 5 mM PQQ): strongly suppressed
Average life after becoming adult ([8]; skn-1 (zu67), 5 mM PQQ in medium): 12.8 ± 0.2 days
Relative value ([8]; skn-1 (zu67), 5 mM PQQ, result without PQQ = 100): 96
life-extending effect (in words) ([8]; skn-1 gene variant, 5 mM PQQ): strongly suppressed
Average life after becoming adult ([9]; pmk-3 (ok-169), 5 mM PQQ in medium): 17.9 ± 0.4 days
Relative value ([9]; pmk-3 (ok-169), 5 mM PQQ, result without PQQ = 100): 90
life-extending effect (in words) ([9]; pmk-3 variant, 5 mM PQQ): strongly suppressed
average life (survival rate vs rearing days after becoming adults) ([2]; 0.1, 1.0, 3.0, 5.0 mM in medium vs 0 mM, FIGS. 1 and 2): tends to extend the average life
Average life after becoming adult ([2]; wild-type, 5 mM PQQ in medium): 15.0 ± 0.6 days
Relative value ([2]; wild-type, 5 mM PQQ, result without PQQ = 100): 140
Average life after becoming adult ([10]; 5 mM PQQ in medium): 14.7 ± 0.9 days
Relative value [10, 13]: 111
Average life after becoming adult ([11]; OB265bli-3 (e767), imEx144[bli-3genomic clone], 5 mM PQQ in medium): 19.8 ± 0.3 days
Relative value ([11]; OB265bli-3 (e767), imEx144[bli-3genomic clone], 5 mM PQQ, result without PQQ = 100): 122
life-extending effect (in words) ([11]; bli-3 gene-deficient line transfected with the bli-3 gene, Example 15, 5 mM PQQ): extended

Main impurities [1]: IPQ
Test substance (%) [1]: Reduced pyrroloquinoline quinone 65%
Main impurities ([12]; 5 mM in agar medium petri dish): PQQ
Test substance (%) ([12]; 5 mM in agar medium petri dish, LC and UV analysis): Reduced pyrroloquinoline quinone 85%
share of all PQQs that maintained the reduced state ([12]; 5 mM in agar medium, LC and UV spectrum analysis): 86%
SMILES: O=C(O)c1cc(C(=O)O)c2c(n1)c(O)c(O)c1cc(C(=O)O)[nH]c12 [Reduced pyrroloquinoline quinone, reduced pyrroloquinoline quinone]

Main impurities [1]: PQQ
Test substance (%) [1]: 92%
detection of IPQ (formed by reaction with amino acids of the medium) ([1]; petri dish medium with peptone): not detected
SMILES: CC(=O)CC1(O)C(=O)c2cc(C(=O)O)[nH]c2-c2c(C(=O)O)cc(C(=O)O)nc21 (stereo not drawn) [acetone adduct of pyrroloquinoline quinone]
average life / life-extending effect [2]: tends to extend the average life
